In ChEMBL document CHEMBL5465560, “Selectivity Literature for EUbOPEN Chemogenomic Library” (2024):
One block for each compound: values may come before it.

Assays:
[1] = molecular target: Cyclin-dependent kinase 9 (Homo sapiens, UniProt P50750); test: Selectivity interaction (KinomeScan (DiscoverX)) EUB0000607a CDK9; settings: at 10 µM
[2] = molecular target: Tyrosine-protein kinase Lyn (Homo sapiens, UniProt P07948); test: Selectivity interaction (KinomeScan (DiscoverX)) EUB0000595a LYN; settings: at 10 µM
[3] = molecular target: T1, Serine/threonine-protein kinase Nek3 (Homo sapiens) (UniProt P51956); test: Selectivity interaction (Upstate Kinase Profiler service (Millipore)) EUB0000056c NEK3; settings: at 1 µM
T1 sequence (whole entry): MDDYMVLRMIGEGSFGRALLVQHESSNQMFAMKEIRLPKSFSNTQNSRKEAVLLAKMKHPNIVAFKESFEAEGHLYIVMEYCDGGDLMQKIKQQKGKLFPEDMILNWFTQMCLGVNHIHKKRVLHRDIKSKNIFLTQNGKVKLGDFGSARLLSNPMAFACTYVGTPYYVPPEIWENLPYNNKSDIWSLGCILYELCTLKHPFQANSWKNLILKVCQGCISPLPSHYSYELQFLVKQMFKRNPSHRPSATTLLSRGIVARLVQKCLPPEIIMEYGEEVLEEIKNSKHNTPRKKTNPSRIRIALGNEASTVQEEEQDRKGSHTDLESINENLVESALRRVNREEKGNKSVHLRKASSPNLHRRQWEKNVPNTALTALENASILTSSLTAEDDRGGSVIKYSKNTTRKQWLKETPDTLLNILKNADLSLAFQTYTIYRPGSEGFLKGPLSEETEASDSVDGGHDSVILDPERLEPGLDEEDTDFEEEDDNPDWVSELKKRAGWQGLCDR

[4] = molecular target: T2, Dual specificity mitogen-activated protein kinase kinase 3 (Homo sapiens) (UniProt P46734); test: Selectivity interaction (ActivX KiNativ screen (kinase selectivity in THP-1 cell lysates)) EUB0000639a MAP2K3; type: subcellular; settings: lysate, at 0.04 µM
T2 sequence (whole entry): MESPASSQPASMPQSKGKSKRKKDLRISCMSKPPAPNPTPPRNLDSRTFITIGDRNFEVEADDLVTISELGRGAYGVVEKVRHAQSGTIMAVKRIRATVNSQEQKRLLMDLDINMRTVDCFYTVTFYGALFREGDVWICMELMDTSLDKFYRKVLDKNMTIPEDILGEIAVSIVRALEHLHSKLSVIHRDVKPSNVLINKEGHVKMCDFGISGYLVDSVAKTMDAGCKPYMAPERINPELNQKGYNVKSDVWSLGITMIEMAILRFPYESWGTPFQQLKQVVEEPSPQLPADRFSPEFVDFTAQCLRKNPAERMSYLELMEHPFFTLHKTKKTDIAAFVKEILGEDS

[5] = molecular target: MAP kinase-interacting serine/threonine-protein kinase 2 (Homo sapiens, UniProt Q9HBH9); test: Selectivity interaction (ProQinase) EUB0000171b MKNK2
[6] = molecular target: Fibroblast growth factor receptor 1 (Homo sapiens, UniProt P11362); test: Selectivity interaction (KinomeScan (DiscoverX)) EUB0001049a FGFR1; settings: at 1 µM
[7] = molecular target: T3, Serine/threonine-protein kinase ULK1 (Homo sapiens) (UniProt O75385); test: Selectivity interaction (KinomeScan (DiscoverX)) EUB0001049a ULK1; settings: at 1 µM
T3 sequence (whole entry): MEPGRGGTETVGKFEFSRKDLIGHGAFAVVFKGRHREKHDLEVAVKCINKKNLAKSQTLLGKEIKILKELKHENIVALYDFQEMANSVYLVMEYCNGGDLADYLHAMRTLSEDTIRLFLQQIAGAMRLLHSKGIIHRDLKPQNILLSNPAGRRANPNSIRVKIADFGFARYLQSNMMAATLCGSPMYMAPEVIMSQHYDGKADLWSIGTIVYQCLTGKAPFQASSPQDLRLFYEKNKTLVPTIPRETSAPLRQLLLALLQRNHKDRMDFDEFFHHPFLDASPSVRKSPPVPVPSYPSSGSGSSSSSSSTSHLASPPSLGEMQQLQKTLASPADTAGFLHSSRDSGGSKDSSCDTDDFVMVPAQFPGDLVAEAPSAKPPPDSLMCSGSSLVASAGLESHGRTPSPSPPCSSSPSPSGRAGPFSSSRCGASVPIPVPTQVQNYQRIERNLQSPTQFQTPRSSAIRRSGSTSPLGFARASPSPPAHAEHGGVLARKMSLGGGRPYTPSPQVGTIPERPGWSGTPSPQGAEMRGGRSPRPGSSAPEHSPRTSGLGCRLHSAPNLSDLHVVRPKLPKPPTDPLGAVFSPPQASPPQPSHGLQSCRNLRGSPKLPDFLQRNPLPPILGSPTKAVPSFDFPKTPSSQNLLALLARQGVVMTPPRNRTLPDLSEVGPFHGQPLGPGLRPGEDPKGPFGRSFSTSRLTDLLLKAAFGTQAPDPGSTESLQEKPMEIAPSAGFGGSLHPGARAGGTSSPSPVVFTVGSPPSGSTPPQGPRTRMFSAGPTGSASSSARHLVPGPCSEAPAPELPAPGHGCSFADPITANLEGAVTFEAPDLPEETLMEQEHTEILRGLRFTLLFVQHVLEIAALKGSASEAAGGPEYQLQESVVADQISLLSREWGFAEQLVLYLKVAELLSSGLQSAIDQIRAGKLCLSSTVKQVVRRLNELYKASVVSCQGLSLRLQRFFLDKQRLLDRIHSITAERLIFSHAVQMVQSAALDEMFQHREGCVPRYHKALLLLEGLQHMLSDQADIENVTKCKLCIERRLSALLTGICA

[8] = molecular target: T4, Serine/threonine-protein kinase mTOR (Homo sapiens, UniProt P42345); test: Selectivity interaction (Kinase panel (antibody-dependent TR-FRET assay, phosphorylation of 4EBP-1 catalyzed by recombinant mTOR)) EUB0000877a MTOR
[9] = molecular target: T4, Serine/threonine-protein kinase mTOR; settings: at 10 µM

MAP kinase-interacting serine/threonine-protein kinase 2, sequence (Q9HBH9 whole entry, looked up): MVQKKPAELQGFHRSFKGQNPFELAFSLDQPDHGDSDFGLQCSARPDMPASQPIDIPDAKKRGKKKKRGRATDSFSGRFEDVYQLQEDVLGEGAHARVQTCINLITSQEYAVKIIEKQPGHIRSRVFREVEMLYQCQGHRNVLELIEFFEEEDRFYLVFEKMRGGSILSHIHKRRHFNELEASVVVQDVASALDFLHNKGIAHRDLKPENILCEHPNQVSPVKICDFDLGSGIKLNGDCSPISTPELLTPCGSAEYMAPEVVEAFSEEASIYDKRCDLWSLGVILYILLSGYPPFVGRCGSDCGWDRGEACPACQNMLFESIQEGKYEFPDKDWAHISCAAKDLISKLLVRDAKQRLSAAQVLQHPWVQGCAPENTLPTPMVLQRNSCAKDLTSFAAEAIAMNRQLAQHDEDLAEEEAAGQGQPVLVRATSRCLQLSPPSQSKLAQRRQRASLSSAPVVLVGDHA
Cyclin-dependent kinase 9, sequence (P50750 whole entry): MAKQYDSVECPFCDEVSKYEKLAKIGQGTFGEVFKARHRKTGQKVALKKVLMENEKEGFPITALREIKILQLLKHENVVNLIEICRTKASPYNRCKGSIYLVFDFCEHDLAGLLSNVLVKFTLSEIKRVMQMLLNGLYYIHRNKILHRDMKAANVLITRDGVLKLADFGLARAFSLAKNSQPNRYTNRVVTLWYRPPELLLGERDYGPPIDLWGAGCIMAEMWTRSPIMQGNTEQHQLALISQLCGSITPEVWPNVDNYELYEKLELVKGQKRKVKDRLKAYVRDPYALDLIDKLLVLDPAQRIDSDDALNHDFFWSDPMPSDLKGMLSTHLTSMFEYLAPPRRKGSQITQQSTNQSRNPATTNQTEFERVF
Tyrosine-protein kinase Lyn, sequence (P07948 2-512 limits assumed): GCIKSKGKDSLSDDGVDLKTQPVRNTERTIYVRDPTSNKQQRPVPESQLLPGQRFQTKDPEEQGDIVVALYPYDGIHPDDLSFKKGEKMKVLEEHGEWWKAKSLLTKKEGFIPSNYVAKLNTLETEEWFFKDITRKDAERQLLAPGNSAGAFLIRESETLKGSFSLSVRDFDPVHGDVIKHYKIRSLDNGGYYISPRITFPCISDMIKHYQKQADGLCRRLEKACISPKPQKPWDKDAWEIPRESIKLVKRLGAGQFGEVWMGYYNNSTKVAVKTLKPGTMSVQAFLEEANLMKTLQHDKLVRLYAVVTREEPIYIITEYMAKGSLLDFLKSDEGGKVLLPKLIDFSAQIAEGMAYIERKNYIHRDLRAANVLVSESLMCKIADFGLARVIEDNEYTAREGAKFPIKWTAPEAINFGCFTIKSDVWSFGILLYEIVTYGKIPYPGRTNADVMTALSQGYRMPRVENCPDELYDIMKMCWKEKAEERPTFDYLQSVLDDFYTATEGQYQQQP
Fibroblast growth factor receptor 1, sequence (P11362 22-822 limits assumed): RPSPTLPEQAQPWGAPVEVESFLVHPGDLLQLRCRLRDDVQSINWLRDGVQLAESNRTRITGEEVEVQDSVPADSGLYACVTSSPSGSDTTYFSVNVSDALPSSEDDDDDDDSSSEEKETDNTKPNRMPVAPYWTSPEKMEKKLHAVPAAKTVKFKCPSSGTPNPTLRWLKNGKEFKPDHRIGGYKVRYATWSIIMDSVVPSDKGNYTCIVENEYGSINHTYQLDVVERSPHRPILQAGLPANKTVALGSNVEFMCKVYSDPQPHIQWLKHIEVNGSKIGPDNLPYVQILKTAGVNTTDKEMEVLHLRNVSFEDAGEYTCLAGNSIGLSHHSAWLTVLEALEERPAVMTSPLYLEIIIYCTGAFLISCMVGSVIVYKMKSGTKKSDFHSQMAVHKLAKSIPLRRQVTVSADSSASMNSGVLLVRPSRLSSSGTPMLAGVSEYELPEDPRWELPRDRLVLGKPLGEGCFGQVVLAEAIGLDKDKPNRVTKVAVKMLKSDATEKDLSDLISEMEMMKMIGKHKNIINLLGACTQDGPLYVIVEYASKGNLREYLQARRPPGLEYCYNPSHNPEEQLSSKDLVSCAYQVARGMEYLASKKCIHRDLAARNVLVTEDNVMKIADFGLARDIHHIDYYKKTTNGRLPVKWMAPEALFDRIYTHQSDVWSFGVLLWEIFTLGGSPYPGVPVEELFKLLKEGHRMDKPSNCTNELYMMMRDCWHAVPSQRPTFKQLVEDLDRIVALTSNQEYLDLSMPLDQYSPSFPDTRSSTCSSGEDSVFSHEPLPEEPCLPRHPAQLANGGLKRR

SMILES: CNC(=O)Nc1ccc(-c2nc(N3CC4CCC(C3)O4)c3cnn(C4CCC5(CC4)OCCO5)c3n2)cc1
% of control [1]: 100%

SMILES: COCC(=O)NC/C=C/c1ccc2ncnc(Nc3ccc(Oc4ccc(C)nc4)c(C)c3)c2c1 [CP-724714]
% of control [2]: 92%

% of inhibition [3]: 6%
SMILES: Cc1ccc(-c2ccc3c(ccc4sc5c(c43)NC[C@@H](C)NC5=O)n2)cn1

% of inhibition [4]: -19%
SMILES: CC[C@@H]1[C@H](F)C(=O)N[C@@H]1COc1nccc2cc(C(N)=O)c(OC)cc12 [ZIMLOVISERTIB]

% of control ([5]; at 1 µM): 80% | % of control ([5]; at 5 µM): 31%
SMILES: C=CC(=O)Nc1cccc(C(=O)Nc2ccc(Nc3cc(-c4[nH]c(SC)nc4C)ccn3)cc2)c1

SMILES: COc1cc(Nc2nc(C)cc(-c3cnn4nc(OC)ccc34)n2)cc(C(F)(F)F)c1
% of control [6]: 98% | % of control [7]: 86%

IC50 [8]: > 9.1 µM
SMILES: CCC(=O)N1CC[C@H](Nc2ncnc3c2CN(c2cnc(OC)c(C(F)(F)F)c2)CC3)C1 [LENIOLISIB]

SMILES: CCC(=O)N1CCN(c2ccc(-n3c(=O)ccc4cnc5ccc(-c6cnc7ccccc7c6)cc5c43)cc2C(F)(F)F)CC1
% of control [9]: 0%
